From patent publication US12344597B2, “Alkoxy-substituted pyridinyl derivatives as LPA1 receptor antagonists and their use in the treatment of fibrosis” (IDORSIA PHARMACEUTICALS LTD, priority 2018, dated 2025)

These compounds were tested against human LPA1 receptor (Homo sapiens (Human), UniProt Q92633) (assay: Beta-arrestin recruitment assay to determine IC50 values for human LPAR1). Conditions: antagonist mode, Tango EDG2-bla U2OS cells, LPA 18:1 500 nM final.
Assay type: cell-based
How it was run: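 Tango EDG2-bla U2OS cells: LPA-driven beta-arrestin/TEV protease recruitment releases Gal4-VP16, inducing beta-lactamase reporter read with live-cell substrate. Cells seeded 20 h at 37 °C beforehand. IC50 is antagonist concentration inhibiting 50% of maximal response.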

Chain of human LPA1 receptor (Q92633 whole entry): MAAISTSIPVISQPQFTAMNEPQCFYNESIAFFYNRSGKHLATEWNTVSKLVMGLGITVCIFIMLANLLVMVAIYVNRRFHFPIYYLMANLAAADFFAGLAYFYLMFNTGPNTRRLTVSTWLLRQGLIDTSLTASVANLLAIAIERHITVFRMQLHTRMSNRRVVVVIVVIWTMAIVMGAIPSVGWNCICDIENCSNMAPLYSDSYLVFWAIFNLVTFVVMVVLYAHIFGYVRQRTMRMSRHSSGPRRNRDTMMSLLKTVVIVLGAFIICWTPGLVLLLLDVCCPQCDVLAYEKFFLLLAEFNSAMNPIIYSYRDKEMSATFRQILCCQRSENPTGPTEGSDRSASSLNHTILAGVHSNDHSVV

SMILES	IC50 [nM]
Cc1ccc(NC(=O)C2(c3ccccc3C(C)C)CN(S(=O)(=O)CCCCC(=O)O)C2)c(OC(F)F)n1 [Ex 13-19, 5-((3-((2-(difluoromethoxy)-6-methylpyridin-3-yl)carbamoyl)-3-(2-isopropylphenyl)azetidin-1-yl)sulfonyl)pentanoic acid]	55
CCOC(=O)/C=C\C(=O)N1CC(C(=O)Nc2ccc(C)nc2OC(F)F)(c2ccccc2C(C)C)C1 [Ex 12-76, ethyl (Z)-4-(3-((2-(difluoromethoxy)-6-methylpyridin-3-yl)carbamoyl)-3-(2-isopropylphenyl)azetidin-1-yl)-4-oxobut-2-enoate]	7
Cc1ccc(NC(=O)C2(c3ccccc3C(C)C)CN(Cc3ccc(C(=O)O)nc3)C2)c(OC(F)F)n1 [Ex 11-53, 5-((3-((2-(difluoromethoxy)-6-methylpyridin-3-yl)carbamoyl)-3-(2-isopropylphenyl)azetidin-1-yl)methyl)picolinic acid]	115
COC(=O)[C@H]1C[C@H]1C(=O)N1CC(C(=O)Nc2ccc(C)nc2OC(F)F)(c2ccccc2C(C)C)C1 [Ex 12-94, methyl (1S,2R)-2-(3-((2-(difluoromethoxy)-6-methylpyridin-3-yl)carbamoyl)-3-(2-isopropylphenyl)azetidine-1-carbonyl)cyclopropane-1-carboxylate]	51
Cc1ccc(NC(=O)C2(c3ccccc3C3CCCCC3)CN(C(=O)CC(C)(C)C(=O)O)C2)c(OC(F)F)n1 [Ex 31-5, 4-(3-(2-cyclohexylphenyl)-3-((2-(difluoromethoxy)-6-methylpyridin-3-yl)carbamoyl)azetidin-1-yl)-2,2-dimethyl-4-oxobutanoic acid]	14
Cc1ccc(NC(=O)C2(c3ccccc3C(C)C)CCN(C(=O)OC(C)(C)C)CC2)c(OC(F)F)n1 [Ex 4-1, tert-butyl 4-((2-(difluoromethoxy)-6-methylpyridin-3-yl)carbamoyl)-4-(2-isopropylphenyl)piperidine-1-carboxylate]	19
Cc1ccc(NC(=O)C2(c3ccccc3C(C)C)CCN(C(=O)C[C@H](O)C(=O)O)CC2)c(OC(F)F)n1 [Ex 12-37, (S)-4-(4-((2-(difluoromethoxy)-6-methylpyridin-3-yl)carbamoyl)-4-(2-isopropylphenyl)piperidin-1-yl)-2-hydroxy-4-oxobutanoic acid]	22
Cc1ccc(NC(=O)C2(c3ccccc3C(C)C)CN(Cc3cccn3CC(=O)O)C2)c(OC(F)F)n1 [Ex 11-42, 2-(2-((3-((2-(difluoromethoxy)-6-methylpyridin-3-yl)carbamoyl)-3-(2-isopropylphenyl)azetidin-1-yl)methyl)-1H-pyrrol-1-yl)acetic acid]	43
Cc1ccc(NC(=O)C2(c3ccccc3C(C)C)CN(C(=O)CNC(N)=O)C2)c(OC(F)F)n1 [Ex 12-10, 1-(carbamoylglycyl)-N-(2-(difluoromethoxy)-6-methylpyridin-3-yl)-3-(2-isopropylphenyl)azetidine-3-carboxamide]	155
COC(=O)C1(COC(=O)N2CC(C(=O)Nc3ccc(C)nc3OC(F)F)(c3ccccc3C(C)C)C2)COC1 [Ex 14-13, (3-(methoxycarbonyl)oxetan-3-yl)methyl 3-((2-(difluoromethoxy)-6-methylpyridin-3-yl)carbamoyl)-3-(2-isopropylphenyl)azetidine-1-carboxylate]	29
COC(=O)c1cccc(CN2CC(C(=O)Nc3ccc(C)nc3OC(F)F)(c3ccccc3C(C)C)C2)n1 [Ex 11-45, methyl 6-((3-((2-(difluoromethoxy)-6-methylpyridin-3-yl)carbamoyl)-3-(2-isopropylphenyl)azetidin-1-yl)methyl)picolinate]	64
Cc1ccc(NC(=O)C2(c3ccccc3C(C)C)CN(C(=O)C[C@H](O)C(=O)O)C2)c(OC(F)F)n1 [Ex 12-34, (S)-4-(3-((2-(difluoromethoxy)-6-methylpyridin-3-yl)carbamoyl)-3-(2-isopropylphenyl)azetidin-1-yl)-2-hydroxy-4-oxobutanoic acid]	33
Cc1ccc(NC(=O)C2(c3ccccc3C(C)C)CCN(S(=O)(=O)CCC(=O)OCc3ccccc3)CC2)c(OC(F)F)n1 [Ex 13-7, benzyl 3-((4-((2-(difluoromethoxy)-6-methylpyridin-3-yl)carbamoyl)-4-(2-isopropylphenyl)piperidin-1-yl)sulfonyl)propanoate]	17
COC(=O)C(C)(C)CCN1CC(C(=O)Nc2ccc(C)nc2OC(F)F)(c2ccccc2C(C)C)C1 [Ex 11-30, methyl 4-(3-((2-(difluoromethoxy)-6-methylpyridin-3-yl)carbamoyl)-3-(2-isopropylphenyl)azetidin-1-yl)-2,2-dimethylbutanoate]	98
Cc1ccc(NC(=O)C2(c3ccccc3C(C)C)CN(C(=O)CCC(=O)C(F)(F)F)C2)c(OC(F)F)n1 [Ex 12-11, N-(2-(difluoromethoxy)-6-methylpyridin-3-yl)-3-(2-isopropylphenyl)-1-(5,5,5-trifluoro-4-oxopentanoyl)azetidine-3-carboxamide]	7
Cc1ccc(NC(=O)C2(c3ccccc3C(C)C)CN(CCCC(C)(C)C(=O)O)C2)c(OC(F)F)n1 [Ex 11-69, 5-(3-((2-(difluoromethoxy)-6-methylpyridin-3-yl)carbamoyl)-3-(2-isopropylphenyl)azetidin-1-yl)-2,2-dimethylpentanoic acid]	15
COC(=O)C(C)(C)OC(=O)N1CC(C(=O)Nc2ccc(C)nc2OC(F)F)(c2ccccc2C(C)C)C1 [Ex 14-6, 1-methoxy-2-methyl-1-oxopropan-2-yl 3-((2-(difluoromethoxy)-6-methylpyridin-3-yl)carbamoyl)-3-(2-isopropylphenyl)azetidine-1-carboxylate]	143
Cc1ccc(NC(=O)C2(c3ccccc3C(C)C)CN(C(=O)CCC(=O)O)C2)c(OC(F)F)n1 [Ex 12-71, 4-(3-((2-(difluoromethoxy)-6-methylpyridin-3-yl)carbamoyl)-3-(2-isopropylphenyl)azetidin-1-yl)-4-oxobutanoic acid]	10
COC(=O)[C@@H](NC(=O)N1CC(C(=O)Nc2ccc(C)nc2OC(F)F)(c2ccccc2C(C)C)C1)C(C)C [Ex 17-6, methyl (3-((2-(difluoromethoxy)-6-methylpyridin-3-yl)carbamoyl)-3-(2-isopropylphenyl)azetidine-1-carbonyl)-L-valinate]	9
Cc1ccc(NC(=O)C2(c3ccccc3C(C)C)CN(C(=O)Cn3cnnc3)C2)c(OC(F)F)n1 [Ex 12-23, 1-(2-(4H-1,2,4-triazol-4-yl)acetyl)-N-(2-(difluoromethoxy)-6-methylpyridin-3-yl)-3-(2-isopropylphenyl)azetidine-3-carboxamide]	21

The remaining lines, values ahead:

IC50 [nM]	SMILES
9	Cc1ccc(NC(=O)C2(c3ccccc3C(C)C)CN(C(=O)c3cc(O)no3)C2)c(OC(F)F)n1 [Ex 12-16, N-(2-(difluoromethoxy)-6-methylpyridin-3-yl)-1-(3-hydroxyisoxazole-5-carbonyl)-3-(2-isopropylphenyl)azetidine-3-carboxamide]
48	Cc1cc(Cl)nc(N2CC(C(=O)Nc3ccc(C)nc3OC(F)F)(c3ccccc3C(C)C)C2)n1 [Ex 18-26, 1-(4-chloro-6-methylpyrimidin-2-yl)-N-(2-(difluoromethoxy)-6-methylpyridin-3-yl)-3-(2-isopropylphenyl)azetidine-3-carboxamide]
6	COC(=O)c1n[nH]cc1CN1CC(C(=O)Nc2ccc(C)nc2OC(F)F)(c2ccccc2C(C)C)C1 [Ex 11-37, methyl 4-((3-((2-(difluoromethoxy)-6-methylpyridin-3-yl)carbamoyl)-3-(2-isopropylphenyl)azetidin-1-yl)methyl)-1H-pyrazole-3-carboxylate]
25	COC(=O)c1cc(S(=O)(=O)N2CC(C(=O)Nc3ccc(C)nc3OC(F)F)(c3ccccc3C(C)C)C2)on1 [Ex 13-26, methyl 5-((3-((2-(difluoromethoxy)-6-methylpyridin-3-yl)carbamoyl)-3-(2-isopropylphenyl)azetidin-1-yl)sulfonyl)isoxazole-3-carboxylate]
17	Cc1ccc(NC(=O)C2(c3ccccc3C(C)C)CN(c3cc(C(=O)O)ncn3)C2)c(OC(F)F)n1 [Ex 18-13, 6-(3-((2-(difluoromethoxy)-6-methylpyridin-3-yl)carbamoyl)-3-(2-isopropylphenyl)azetidin-1-yl)pyrimidine-4-carboxylic acid]
6	CCCNS(=O)(=O)N1CC(C(=O)Nc2ccc(C)nc2OC(F)F)(c2ccccc2C(C)C)C1 [Ex 15-11, N-(2-(difluoromethoxy)-6-methylpyridin-3-yl)-3-(2-isopropylphenyl)-1-(N-propylsulfamoyl)azetidine-3-carboxamide]
16	Cc1ccc(NC(=O)C2(c3ccccc3C(C)C)CN(C(=O)CS(=O)(=O)O)C2)c(OC(F)F)n1 [Ex 12-3, 2-(3-((2-(difluoromethoxy)-6-methylpyridin-3-yl)carbamoyl)-3-(2-isopropylphenyl)azetidin-1-yl)-2-oxoethane-1-sulfonic acid]
5	Cc1ccc(NC(=O)C2(c3ccccc3C(C)C)CN(CC(C)N)C2)c(OC(F)F)n1 (stereo not drawn) [Ex 11-11, 1-(2-aminopropyl)-N-(2-(difluoromethoxy)-6-methylpyridin-3-yl)-3-(2-isopropylphenyl)azetidine-3-carboxamide]
108	Cc1ccc(NC(=O)C2(c3ccccc3C(C)C)CN(Cc3ccnn3C)C2)c(OC(F)F)n1 [Ex 11-22, N-(2-(difluoromethoxy)-6-methylpyridin-3-yl)-3-(2-isopropylphenyl)-1-((1-methyl-1H-pyrazol-5-yl)methyl)azetidine-3-carboxamide]
31	COC(=O)c1cnc(N2CC(C(=O)Nc3ccc(C)nc3OC(F)F)(c3ccccc3C(C)C)C2)nc1 [Ex 18-4, methyl 2-(3-((2-(difluoromethoxy)-6-methylpyridin-3-yl)carbamoyl)-3-(2-isopropylphenyl)azetidin-1-yl)pyrimidine-5-carboxylate]
